Source: US7439225B2, “Substances K01-B0171 and process for producing the same” (The Kitasato Institute, priority 2003, dated 2008)
Positions of bridges follow the written chain, without caps; N, C: chain ends. Residues, ends and D or L forms follow the SMILES beside them.

Legend:
[1] = Grouping for acidic, neutral and basic; assay type: physicochemical
Solubility in solvent = assay type: physicochemical

Row | SMILES | Grouping for acidic, neutral and basic [1] | Solubility in solvent (Solubility in solvent)
1 | CCC(C)C(NC(=O)C(NC(=O)C(CC(N)=O)NC(=O)C(CO)NC(=O)C(Cc1c[nH]cn1)NC(=O)CNC(=O)C(NC(=O)C(Cc1c[nH]c2ccccc12)NC(=O)C1CCC(=O)NCC(=O)NC(CO)C(=O)NC(CCC(N)=O)C(=O)NC(CC(C)C)C(=O)NC(C(C)C)C(=O)NC(Cc2ccc(O)cc2)C(=O)NC(CCCNC(=N)N)C(=O)N1)C(C)C)C(C)C)C(=O)NC(CCCCN)C(=O)NCC(=O)N1CCCC1C(=O)N1CCCC1C(=O)O (stereo not shown) [K01-B0171-C substance] (GSQLVYREWVGHSNVIKGPP-OH; lactam N-8; configuration not given here) | Weak basic substance | soluble in water, dimethyl sulfoxide (DMSO), methanol and ethanol, and insoluble in acetonitrile, ethyl acetate, chloroform and acetone
2 | CCC(C)C(NC(=O)C(NC(=O)C(CC(N)=O)NC(=O)C(CO)NC(=O)C(Cc1c[nH]cn1)NC(=O)CNC(=O)C(NC(=O)C(Cc1c[nH]c2ccccc12)NC(=O)C1CCC(=O)NCC(=O)NC(CO)C(=O)NC(CCC(N)=O)C(=O)NC(CC(C)C)C(=O)NC(C(C)C)C(=O)NC(Cc2ccc(O)cc2)C(=O)NC(CCCNC(=N)N)C(=O)N1)C(C)C)C(C)C)C(=O)NC(CCCCN)C(=O)N1CCCC1C(=O)O (stereo not shown) [K01-B0171-B substance] (GSQLVYREWVGHSNVIKP-OH; lactam N-8; configuration not given here) | Weak basic substance | soluble in water, dimethyl sulfoxide (DMSO), methanol and ethanol, and insoluble in acetonitrile, ethyl acetate, chloroform and acetone
